These results are taken from patent US20100041103A1, “COMPOSITION AND METHOD FOR ENHANCING CELL GROWTH AND CELL FUSION” (DO-COOP TECHNOLOGIES LTD., priority 2007, published 2010).

Series [1] can be described thus: Dissolving CD-Dau, Daunorubicine and t-boc (Example 9). It counts as physicochemical. How it is done:
5 different glass vials were prepared: • 1. 5 mg CD-Dau+1.2 ml Neowater™. • 2. 1.8 mg CD-Dau+600 μl acetone. • 3. 1.8 mg CD-Dau+150 μl acetone+450 μl Neowater™ (25% acetone). • 4. 1.8 mg CD-Dau+600 μl 10% *PEG (Polyethylene Glycol). • 5. 1.8 mg CD-Dau+600 μl acetone+600 μl Neowater™.
The samples were vortexed and spectrophotometer measurements were performed on vials #1, 4 and 5
The vials were left opened in order to evaporate the acetone (vials #2, 3, and 5).
2 mg Daunorubicine+1 ml Neowater™ was prepared in one vial and 2 mg of Daunorubicine+1 ml RO was prepared in a second vial.
1.14 ml of EtOH was added to one glass vial containing 18.5 mg of t-boc (an oily material). This was then divided into two vials and 1.74 ml Neowater™ or RO water was added to the vials such that the solution comprised 25% EtOH. Following spectrophotometer measurements, the solvent was evaporated from the solution and Neowater™ was added to both vials to a final volume of 2.31 ml in each vial. The solutions in the two vials were merged to one clean vial and packaged for shipment under vacuum conditions.

For series [2] the following is noted: cited from earlier work.
Series [3] in a line: Solubilization of peptides in Neowater (Example 11). It counts as physicochemical. Conditions: at 0.5 mM. The source says:
Spectrophotometric measurements were taken.

Series [4] is described as follows: Dissolving retinol in Neowater, absorbance and filtration (Example 12). It counts as physicochemical. Here is the method: Retinol (vitamin A) was purchased from Sigma (Fluka, 99% HPLC). Retinol was solubilized in Neowater™ under the following conditions.
1% retinol (0.01 gr in 1 ml) in EtOH and Neowater™
0.5% retinol (0.005 gr in 1 ml) in EtOH and Neowater™
0.5% retinol (0.125 gr in 25 ml) in EtOH and Neowater™.
0.25% retinol (0.0625 gr in 25 ml) in EtOH and Neowater™. Final EtOH concentration: 1.5%
Absorbance spectrum of retinol in EtOM: Retinol solutions were made in absolute EtOH, with different retinol concentrations, in order to create a calibration graph; absorbance spectrum was detected in a spectrophotometer.
2 solutions with 0.25% and 0.5% retinol in Neowater with unknown concentration of EtOH were detected in a spectrophotometer. Actual concentration of retinol is also unknown since some oil drops are not dissolved in the water.
Filtration: 2 solutions of 0.25% retinol in Neowater™ were prepared, with a final EtOH concentration of 1.5%.The solutions were filtrated in […] filter.

Series [5] is described as follows: Taxol in Neowater by slow solvent exchange, spectrophotometry and HPLC after storage (Example 18). It counts as physicochemical. To be noted: taxol dispersed in Neowater, 6 month storage at −20° C., HPLC. How it is done:
Solubilization: 0.5 mM Taxol solution was prepared (0.0017 gr in 4 ml). Taxol was dissolved in ethanol and exchanged to Neowater™ using an RT slow solvent exchange procedure which extended for 20 days. […] The solution was sterilized using a 0.2 μm filter. Taxol was separately prepared in DMSO (0.5 mM). Both solutions were kept at −20° C. Absorbance was detected with a spectrophotometer.

The test system of series [6] is 293T cells. Briefly: Cell viability assay, trypan blue count after taxol. Conditions: taxol dissolved in Neowater, 1.666 μM, 24 hour treatment. It counts as cell-based. Here is the method:
Cell viability assay: 150,000 293T cells were seeded in a 6 well plate with 3 ml of DMEM medium. Each treatment was grown in DMEM medium based on RO or Neowater™. […] The cells were harvested following a 24 hour treatment with taxol and counted using trypan blue solution to detect dead cells.

The nature of series [7]: Solubilization of taxol in DMSO or Neowater with 17% EtOH (Example 15). It counts as physicochemical. Conditions: 0.5 mM; Neowater with 17% EtOH. Here is the method: Solubilization: 0.5 mM Taxol solution was prepared (0.0017 gr in 4 ml) in either DMSO or Neowater™ with 17% EtOH. Absorbance was detected with a spectrophotometer.

Structures can show the parent of a compound that is named as a salt. Ends that are not written are not given here.

With Daidzein—daunomycin conjugate [CD-Dau], the “dissolving, Vial #3 (25% acetone)” value in series [1] (1.8 mg + 150 μl acetone + 450 μl Neowater) is reported as “didn't dissolve very well”. Also, in series [1] (1.8 mg + 600 μl 10% PEG), the “dissolving, Vial #4 (10% PEG+Neowater)” value is given as “dissolved better than the CD-Dau in vial #1”. In addition, in series [1] (1.8 mg + 600 μl acetone), the “dissolving, Vial #2 (100% acetone)” value is recorded as “suspended inside the acetone”. For the same compound, the “dissolving, Vial #5 (acetone exchanged for Neowater)” value in series [1] (1.8 mg + 600 μl acetone + 600 μl Neowater, as the acetone evaporated) is on record as “partially sediment to the bottom of the vial”. The “dissolving, Vial #1 (100% Neowater)” value in series [1] (5 mg + 1.2 ml Neowater) was “sedimented after a few hours”. In addition, in series [2], the “solubility in water (known)” value was “known not to dissolve in water”.

For PFPSYKLRPG-NH2, in series [3], the “dissolving in Neowater” value is “dissolved”.

For the compound `CC1=C(/C=C/C(C)=C/C=C/C(C)=C/CO)C(C)(C)CCC1` [Retinol], the “retinol in the solutions following filtration” value in series [4] (0.25% retinol in Neowater, 1.5% EtOH, filtered (0.44 and 0.2 filter)) is on record as “less than 0.03125%”. Also, the figures for the “retinol concentration in EtOH with similar absorbance pattern” value in series [4] (nominal 0.25% retinol in Neowater) and in series [4] (nominal 0.5% retinol in Neowater) were about 0.03125% and about 0.125%, respectively.

As to `CC(=O)O[C@H]1C(=O)[C@@]2(C)[C@H]([C@H](OC(=O)c3ccccc3)[C@]3(O)C[C@H](OC(=O)[C@H](O)[C@@H](NC(=O)c4ccccc4)c4ccccc4)C(C)=C1C3(C)C)[C@]1(OC(C)=O)CO[C@@H]1C[C@@H]2O` [Taxol, Paclitaxel], the “structural changes of the formulation on storage” value in series [5] is reported as “no structural changes”. Further, the cytotoxic effect result in series [6] is on record as “comprised a cytotoxic effect”. Moreover, the “dissolving in DMSO and Neowater” value in series [7] is “dissolved both in DMSO and Neowater™”.

As for `COc1cccc2c1C(=O)c1c(O)c3c(c(O)c1C2=O)C[C@@](O)(C(C)=O)C[C@@H]3O[C@H]1C[C@H](N)[C@H](O)[C@H](C)O1` [Daunorubicine, Cerubidine hydrochloride], in series [1] (2 mg in 1 ml), the “dissolving in Neowater and RO” value is listed as “dissolves without difficulty”. Also, the “solubility in water (known)” value in series [2] was “known not to dissolve in water”.
